# Data: patent US20240384268A1, “Oligonucleotides” (Hudson Institute of Medical Research, priority 2021, published 2024)
# d = 2'-deoxy (DNA); m = 2'-O-methyl
# Biological target: T1, TLR8 (Homo sapiens, UniProt Q9NR97)
# T1 sequence (Q9NR97 27-1041): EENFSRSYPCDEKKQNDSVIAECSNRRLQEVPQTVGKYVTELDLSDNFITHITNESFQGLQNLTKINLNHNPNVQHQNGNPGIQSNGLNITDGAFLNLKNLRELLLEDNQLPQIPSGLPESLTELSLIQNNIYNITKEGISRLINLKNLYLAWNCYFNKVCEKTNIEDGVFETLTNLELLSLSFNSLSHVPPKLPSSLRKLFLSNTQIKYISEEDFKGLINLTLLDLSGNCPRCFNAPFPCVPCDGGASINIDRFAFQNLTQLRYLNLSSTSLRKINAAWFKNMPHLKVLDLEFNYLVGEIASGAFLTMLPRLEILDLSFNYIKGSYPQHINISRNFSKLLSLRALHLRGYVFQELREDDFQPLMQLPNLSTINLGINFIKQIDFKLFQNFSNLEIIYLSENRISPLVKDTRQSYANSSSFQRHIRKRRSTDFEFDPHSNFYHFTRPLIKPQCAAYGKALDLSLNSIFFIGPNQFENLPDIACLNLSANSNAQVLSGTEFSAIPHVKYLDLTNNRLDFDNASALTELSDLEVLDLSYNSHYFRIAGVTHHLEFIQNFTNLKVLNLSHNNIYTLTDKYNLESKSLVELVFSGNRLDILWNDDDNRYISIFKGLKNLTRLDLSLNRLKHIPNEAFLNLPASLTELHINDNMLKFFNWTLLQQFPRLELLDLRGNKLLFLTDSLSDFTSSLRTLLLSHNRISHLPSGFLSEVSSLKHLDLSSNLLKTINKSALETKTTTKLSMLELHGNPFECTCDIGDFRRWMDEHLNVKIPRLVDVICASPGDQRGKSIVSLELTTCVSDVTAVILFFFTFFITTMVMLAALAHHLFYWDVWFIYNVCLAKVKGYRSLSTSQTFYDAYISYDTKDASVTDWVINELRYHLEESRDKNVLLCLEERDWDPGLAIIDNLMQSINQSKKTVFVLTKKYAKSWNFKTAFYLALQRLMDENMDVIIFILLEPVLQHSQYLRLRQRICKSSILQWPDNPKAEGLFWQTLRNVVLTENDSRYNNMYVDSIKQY
# Assay: HEK-TLR8 NF-κB-luciferase reporter, R848 or Motolimod stimulation (potentiation or inhibition)
# Type: cell-based
# Parameters: expressed in transfected cells; host or cells: 293XLhTLR8 (HEK293)
# Settings: for TLR8 100 nM (averaged NF-κB-Luciferase level relative to R848 condition, fold increase): ASO 100 nM; for TLR8 100 nM (averaged NF-κB-Luciferase level relative to R848 condition, fold increase) / TLR8 500 nM (averaged NF-κB-Luciferase level relative to R848 condition, fold increase): relative to R848 only; for TLR8 500 nM (averaged NF-κB-Luciferase level relative to R848 condition, fold increase): ASO 500 nM
Substance,"TLR8 100 nM (averaged NF-κB-Luciferase level relative to R848 condition, fold increase)","TLR8 500 nM (averaged NF-κB-Luciferase level relative to R848 condition, fold increase)","TLR8-500 nM: averaged NF-κB-Luciferase relative to R848 (HEK-TLR8, 500 nM ASO, fold increase relative to R848 without ASO (Alharbi et al., 2020)) [fold]"
"CGGCCTCGGAAGCTCT (antisense; LNA-modified, pattern not given here) [MB21D1-168 LNA V1]",0.402,0.219,
"GCACTTCAGTCTGAGC (antisense; LNA-modified, pattern not given here) [MB21D1-719 LNA KL]",0.495,0.864,
"AGGTCTTGGCTTCGTG (antisense; LNA-modified, pattern not given here) [MB21D1-524 LNA V1]",0.596,1.953,
"ATGGCCTCCCATCTCC (antisense; LNA-modified, pattern not given here) [HPRT LNA-330 V1]",0.369,1.356,
"ACGTTCAGTCCTGTCC (antisense; LNA-modified, pattern not given here) [HPRT LNA-294 V1]",0.356,0.493,
"GTCAAGGGCATATCCT (antisense; LNA-modified, pattern not given here) [HPRT LNA-732 KL]",0.543,2.301,
"TTCAGGCGCTGCCTTG (antisense; LNA-modified, pattern not given here) [CAMSAP1-2709 LNA V1]",0.479,0.764,
"AGGACTCCAGATGTTT (antisense; LNA-modified, pattern not given here) [HPRT LNA pos cont]",0.278,1.034,
"GATGGCCTCCCATCTC (antisense; LNA-modified, pattern not given here) [HPRT LNA-331 V1]",0.278,0.186,
"TCCATACCCAAGGCAT (antisense; LNA-modified, pattern not given here) [CTNN2B-2446 LNA V1]",0.595,1.334,
"TGACTGTCTTGAGGGT (antisense; LNA-modified, pattern not given here) [MB21D1-1483 LNA KL]",0.973,3.210,
"GGTCATTACAATAGCT (antisense; LNA-modified, pattern not given here) [HPRT LNA-475 KL]",0.500,1.381,
"mA*mG*mU*mG*mG*C*A*C*A*T*A*C*C*A*C*mA*mC*mC*mC*mU (AGUGGCACATACCACACCCU; antisense; sugars from the 5' end m5 d10 m5, all phosphorothioate, methylation of C not given here) [[CDKN2B-AS1]495]",,,4.48
"CCACTTGGCAGACCAT (antisense; LNA-modified, pattern not given here) [CTNN2B-1575 LNA V1]",0.684,1.213,
